The values below come from patent publication US9688653B2, “Ethoxyphenyl thienyl compounds and methods for the treatment of bacterial infections” (Duke University, priority 2013, dated 2017).

“Also recorded” adds a separate entry of the source.

In data set [1] the test system is panel of 68 receptors. The note with it: 10 μM, duplicate; upper bound over all targets.
Data set [2] concerns E. coli UTI89. Briefly: Human serum sensitization (MTT). It is filed as cell-based, Escherichia coli. The note with it: 50 μM compound, p=0.0067 versus control. The procedure:
Human serum sensitization by capsule inhibitor treatment. Overnight cultures of UTI89 were diluted 1:100 and grown with or without 50 μM compound for approximately 1.5 hrs on a shaker at 37° C. Then 25 μL of anonymous, non-identified, sterile filtered pooled human serum (purchased from Equitech Bio) was added per 100 μL of growth media. This was returned to the shaker for another 3 hrs, after which 20 μL of 5 mg/mL MTT (3-(4,5-Dimethylthiazol-2-yl)-2,5-diphenyltetrazolium bromide) was added. MTT is reduced to purple formazan by bacterial reductase enzymes, thus measuring viable bacteria. This was shaken for another 15 min at 37° C. The sample was spun to remove the growth media, followed by two washes with PBS. The formazan crystals were dissolved in 100 μL of DMSO and measured at OD570.

Data set [3] relates to K1 capsule of UTI89. Description: Secondary assay 3: orcinol assay for released K1 capsule polysaccharide. In kind it is cell-based, Escherichia coli. The note with it: 100 μM, K1 strain UTI89. The procedure: E. Secondary Assay 3: Orcinol Secondary Screening for Inhibitors of Bacterial Capsule Biogenesis.
Purpose: This assay was performed only on the probe candidate. […] The biochemical determination of cell-surface associated capsule was performed using UTI89 or the Delta Region I and Delta Region II capsule mutant bacterial strains.
Purpose: This assay was performed only on the probe candidate. […] The biochemical determination of cell-surface associated capsule was performed using UTI89 or the delta Region I and Region II capsule mutant bacterial strains.
Assay Description: The biochemical measurement of cell-surface associated capsule was performed. UTI89 or capsule mutants were grown in culture tubes with and without the test compound (50 μM). The cultures were centrifuged, and the cell pellets were washed in PBS and resuspended in Tris buffer, pH5. […] Released polysaccharide was harvested by separation from whole bacteria by centrifugation followed by deproteination with phenol/chloroform and precipitation with ethanol. The precipitated material was subjected to acid hydrolysis (pH 2 at 80° C. for 1 hr) and incubated with orcinol, which reacts with periodic intermediates to produce a violet color quantified at OD 570 (3) Inhibitors reducing or abrogating surface encapsulation yielded low orcinol levels similar to the capsule export and synthesis mutants (Region I and II). The positive control drug C7 (100 μM final well concentration) was used in this screen.
Endpoint Read: The samples were read at ambient temperature from the bottom for absorbance at A570 in a BioTek Quantplate reader and the degree of orcinol-reactive material was determined based on the absorbance compared to a wild-type encapsulated strain (UTI89) and a standard curve using purified sialic acid.
Orcinol assay for released capsule material. Orcinol reactivity was used as a biochemical confirmation of altered extracellular capsule after compound treatment. UTI89 or an isogenic capsule mutant was grown in 100 μM of test compound or 1% DMSO. The assay was performed as previously described. The molecule C7 (100 μM final concentration) was used as a positive control. The assay was performed 3 times with replicate samples.

Data set [4] relates to K1 antigen of UTI89. Description: K1 antigen whole-cell dot blot with anti-K1 serum. In kind it is cell-based, Escherichia coli. As to conditions: 100 μM. How it is done: K1 antigen dot blot. K1 antigen was detected by dot blot assays of culture extracts probed with anti-K1 H46 serum. The assay was performed as previously described. The experiment was repeated twice with similar results, and a representative dot blot is shown.

The target of data set [5] is norepinephrine transporter (Homo sapiens, UniProt P23975). Description: LeadProfilingScreen, single target. In kind it is binding. As to conditions: duplicate. How it is done: Evaluation of off-target effects. Off target effects of lead molecules of interest were evaluated using the LeadProfilingScreen commercial assay at Eurofins Panlabs (Bothell, Wash.). Reference standards were run as an integral part of each assay to ensure the validity of the results obtained. Assay results are presented as the percent inhibition of specific binding or activity (for n=2 replicates) for the probe compound tested at a concentration of 10 μM. Details regarding the individual assays and methods are provided in Supplementary Information File 51.
DU003 & DU011 are biologically selective. DU003 and DU011 were submitted to the Eurofins Panlabs LeadProfilingScreen to assess off-target pharmacology 1421. […] In review of PubChem data, DU011 (CID23602075) is reported to have shown activity in only 21 of 467 (4.5%, as of Sep. 5, 2013) bioassays in which it was tested (assays unrelated to the current project). Per PubChem, DU003 (CID18109210) is reported to have shown activity in only 5 of 427 (1.2%, as of Sep. 5, 2013) bioassays in which it was tested (assays unrelated to the current project).

The subject of data set [6] is E. coli K1 strain UTI89. Description: Secondary assay 2: T7 phage-mediated lysis assay. As to conditions: read-out: T7 phage IC50. It is filed as cell-based, Escherichia coli. The essentials: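 E. coli K1 UTI89 shaken 1.5 h with compound (100–0.39 μM, quadruplicate, 1% DMSO), initial OD600 taken to flag growth effects without phage. T7 phage, whose entry is blocked by K capsule, then added; OD600 lysis read after 3 h at 37 °C, greater lysis indicating less capsule.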

A short description of data set [7]: Cytotoxicity counterscreen, CellTiter Glo, 72 hr. In kind it is cell-based, human. The note with it: human, bladder carcinoma 5637 cells (ATCC HTB-9), five probe analogues. The essentials: (§1)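 5637 bladder carcinoma cells were exposed to a 10-point compound series (300-0.58 μM, 0.5% DMSO) for 72 h. Viability was measured by CellTiter-Glo luminescence, and TC50 (CC50) was derived, with Hyamine as cytotoxic control.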

The test system of data set [8] is E. coli K1 strain UTI89. Briefly: microbe, parasite or virus in culture. The note with it: for Selectivity: five probe analogues. The essentials: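 UTI89 cultures in LB with 0.5% DMSO were preincubated 2 hr at 37 °C with compounds (100 μM in screen), then with K1F phage a further 2 hr. Viability was read as Alamar Blue fluorescence. Phage-lysis inhibition is relative to plate bacterial controls; IC50 by 4-parameter fit locked at 0 and 100.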

Data set [9] has as its system Bladder carcinoma 5637 cells. Briefly: Cytotoxicity counterscreen, CellTiter Glo, 72 hr. In kind it is cell-based, human. The method, boiled down:
as §1
In general terms: Counterscreens check selectivity or assay interference.

A short description of data set [10]: Thiol stability (glutathione, DTT). In kind it is physicochemical. As to conditions: 10 μM compound, PBS pH 7.4, room temperature, eight hours. How it is done:
Compounds were dissolved at 10 μM in PBS at pH 7.4 (1% DMSO) and incubated at room temperature with either no thiol source as a negative control, 50 μM glutathione (GSH), or 50 μM dithiothreitol (DTT). The mixtures were sampled every hour for eight hours and analyzed by RP HPLC/UV/HRMS. The analytical RP HPLCUV/HRMS system utilized for the analysis was a Waters Acquity system with UV-detection and mass-detection (Waters LCT Premier). The analytical method conditions included a Waters Acquity HSS T3 C18 column (2.1×50 mm, 1.8 um) and elution with a linear gradient of 1% water to 100% CH3CN at 0.6 mL/min flow rate. Peaks on the 214 nm chromatographs were integrated using the Waters OpenLynx software. Absolute areas under the curve were compared at each time point to determine relative percent compound remaining. The masses of potential adducts were searched for in the final samples to determine if any detectable adduct formed. All samples were prepared in duplicate (FIG. 5). Ethacrynic acid, a known Michael acceptor, was used as a positive control. If solubility of the compound was an issue at 10 μM, PBS was substituted with PBS with 50% acetonitrile (35).

The mark [11] stands for this setting: Escherichia coli, five probe analogues.
[12] abbreviates: Escherichia coli, read-out: K1 phage IC50, five probe analogues.
Setting [13] is: Escherichia coli, read-out: K1 phage IC50 (inhibition of K1 capsule formation).
The mark [14] stands for this setting: first round of synthetic analogues, n = 2.
[15] abbreviates: read-out: K1 phage IC50, first round of synthetic analogues, n = 3.
Where [16] appears, read: purchased analogue series, n = 2.
Setting [17] is: read-out: K1 phage IC50, purchased analogue series, n = 3.
[18] abbreviates: second round of synthetic analogues, n = 2.
[19] abbreviates: read-out: K1 phage IC50, second round of synthetic analogues, n = 3.

Chain of norepinephrine transporter (P23975 whole entry): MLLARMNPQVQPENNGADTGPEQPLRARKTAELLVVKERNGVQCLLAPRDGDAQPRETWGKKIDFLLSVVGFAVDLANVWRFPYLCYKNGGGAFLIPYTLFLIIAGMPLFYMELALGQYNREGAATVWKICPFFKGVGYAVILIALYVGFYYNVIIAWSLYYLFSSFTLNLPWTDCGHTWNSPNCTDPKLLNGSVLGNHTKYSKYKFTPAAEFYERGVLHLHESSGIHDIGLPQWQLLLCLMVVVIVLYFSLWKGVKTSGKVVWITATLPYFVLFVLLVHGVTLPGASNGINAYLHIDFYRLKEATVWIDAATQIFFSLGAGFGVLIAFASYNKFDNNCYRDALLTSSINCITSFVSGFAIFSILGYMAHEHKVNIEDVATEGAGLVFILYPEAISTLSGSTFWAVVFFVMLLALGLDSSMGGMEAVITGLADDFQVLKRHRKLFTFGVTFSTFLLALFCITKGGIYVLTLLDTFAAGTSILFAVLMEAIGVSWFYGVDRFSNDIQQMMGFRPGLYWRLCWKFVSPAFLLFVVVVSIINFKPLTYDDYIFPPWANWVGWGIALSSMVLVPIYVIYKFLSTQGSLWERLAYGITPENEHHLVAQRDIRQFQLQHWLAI

What is called inhibition is the drop in the measured response relative to a control, in per cent. `O=C(Nc1ccncc1)c1ccc2ncsc2c1` [DU003, N-pyridin-4-yl-1,3-benzothiazole-6-carboxamide]: in data set [1], the “Inhibition across off-target panel” value was less than 30%. For the same compound, the “Sensitivity of UTI89 to pooled human serum (MTT)” value in [2] is on record as “further increased serum-mediated killing; also recorded: significantly more sensitive”. Also, the “Reduction of orcinol-reactive polysaccharides on surface of bacteria” value in [3] is roughly 80%. The “Whole-cell anti-K1 dot blot reactivity” value in data set [4] is reported as “reduces K1 reactive material to levels comparable to those of genetic capsule mutants”. In addition, the inhibition at 10 µM in data set [5] stood at 58%.

One may read the IC50 as the concentration that inhibits the measured activity by half. `O=C(Nc1cc(-c2ccc(C(F)(F)F)cc2)sc1C(=O)O)c1cc2ccccc2o1` [CID 53470417, 3-(Benzofuran-2-carboxamido)-5-(4-(trifluoromethyl)phenyl)thiophene-2-carboxylic acid]: the concentration for half-maximal inhibition (IC50) in [6] (setting [11]) is 14.1 µM; in [8] (setting [12]), greater than 100 µM. Moreover, half-maximal inhibition in [7] (IC50 at 72 h) required 72.1 µM.

For `O=C(O)c1sc(-c2ccc(OC(F)(F)F)cc2)cc1NC(=O)c1c(F)cccc1F` [CID 53495055, 3-(2,6-Difluorobenzamido)-5-(4-(trifluoromethoxy)phenyl)thiophene-2-carboxylic acid], the half-maximal inhibitory concentration (IC50) came out at 1.35 µM in [6] (setting [11]), 13 µM in data set [8] (setting [13]) and 13 ± 4.6 µM in data set [8] (setting [12]). The 50% inhibitory concentration (IC50) at 72 h in data set [7] amounted to 51 ± 2.62 µM. In data set [8], the Selectivity came to 3.91.

For the compound `O=C(Nc1cc(-c2ccc(C(F)(F)F)cc2)sc1C(=O)O)c1ccc(Br)s1` [compound 53470428], the half-inhibitory concentration (IC50) in data set [6] (setting [14]) is 14.1 µM; in [9], 38.5 µM; in data set [8] (setting [15]), greater than 50 µM.

On to `O=C(Nc1cc(-c2ccccc2)sc1C(=O)O)c1ccc(Cl)s1` [compound 17547200], for which the concentration for half-maximal inhibition (IC50) in [6] (setting [16]) is 15.1 µM; in data set [9] it was 71.5 µM; in data set [8] (setting [17]), greater than 100 µM.

For the compound `O=C(Nc1cc(-c2ccc(C(F)(F)F)cc2)sc1C(=O)O)c1cc2ccccc2o1` [compound 53470417], the IC50 in data set [6] (setting [14]) is 7.17 µM; in data set [9] it was 72.1 µM; in [8] (setting [15]), greater than 100 µM.

As to `C=C(CC)C(=O)c1ccc(OCC(=O)O)c(Cl)c1Cl` [ethacrynic acid, Ethacrynic acid], the “Stability to DTT” value in data set [10] (50 μM DTT) was “even more rapidly”. Besides, the Stability to glutathione entry in data set [10] (50 μM GSH) was “react rapidly”.

Take `CCOc1ccc(-c2cc(NC(=O)c3ccc(Br)s3)c(C(=O)O)s2)cc1` [compound 53470415]: the IC50 in [6] (setting [14]) was determined as 3.33 µM; in data set [9] it was 49.7 µM; in data set [8] (setting [15]) it was 17 µM.

Turning to `Cc1ccc(-c2cc(NC(=O)c3c(F)cccc3F)c(C(=O)O)s2)cc1` [compound 53470422], the IC50 in data set [6] (setting [14]) is 2.43 µM; in data set [9], 57.3 µM; in data set [8] (setting [15]), 40.3 µM.

Turning to `O=C(O)c1sc(-c2ccc(OCCC(F)(F)F)cc2)cc1NC(=O)c1c(F)cccc1F` [compound 56643020], the figures for the concentration for half-maximal inhibition (IC50) in data set [6] (setting [18]), in [9] and in [8] (setting [19]) were less than 0.0156 µM, 68.4 µM and 0.84 µM, respectively.

Turning to `O=C(Nc1cc(-c2ccccc2)sc1C(=O)O)c1cccs1` [compound 9945365], the figures for the half-inhibitory concentration (IC50) in [6] (setting [16]), in [9] and in data set [8] (setting [17]) were 6.9 µM, 62 µM and 75.4 µM, respectively.

For the compound `O=C(Nc1cc(-c2ccc(C(F)(F)F)cc2)sc1C(=O)O)c1ccc(Br)o1` [compound 53470416], the results for the IC50 in data set [6] (setting [14]), in data set [9] and in data set [8] (setting [15]) were 2.59 µM, 47.5 µM and 12.3 µM, respectively.

For the compound `CCOc1ccc(-c2cc(NC(=O)c3ccc(Br)s3)c(C(=O)O)s2)cc1` [CID 53470415, 3-(5-Bromothiophene-2-carboxamido)-5-(4-ethoxyphenyl)thiophene-2-carboxylic acid], the IC50 in data set [6] (setting [11]) was 3.33 µM; in data set [8] (setting [12]) it was 17 ± 4.49 µM. The compound further returned a concentration for half-maximal inhibition (IC50) at 72 h in data set [7] of 49.7 ± 6.49 µM. The Selectivity in data set [8] is listed as 2.92.

Take `O=C(O)c1sc(-c2ccc(OCC(F)(F)F)cc2)cc1NC(=O)c1c(F)cccc1F` [compound 56643002]: the half-inhibitory concentration (IC50) in [6] (setting [18]) was less than 0.625 µM; in [9], 75.2 µM; in [8] (setting [19]), 2.86 µM.

As to `COc1ccc(-c2cc(NC(=O)c3ccc(Br)o3)c(C(=O)O)s2)cc1` [CID 53470446, 3-(5-Bromofuran-2-carboxamido)-5-(4-methoxyphenyl)thiophene-2-carboxylic acid], the half-inhibitory concentration (IC50) in data set [6] (setting [11]) was 1.24 µM; in [8] (setting [13]), 11.1 µM; in data set [8] (setting [12]) it was 11.1 ± 3.33 µM. In data set [7], the midpoint of inhibition, the IC50 at 72 h, lay at 50.5 ± 0.52 µM. Further, the Selectivity in data set [8] is reported as 4.55.
